From ChEMBL document CHEMBL4033617, “Stereo-controlled synthesis of functionalized tetrahydropyridines based on the cyanomethylation of 1,6-dihydropyridines and generation of anti-hepatitis C virus agents” (Bioorg Med Chem, 2017)

Tested on: Hepatitis C virus
Experiment: Antiviral activity against Hepatitis C virus infected in human Huh7.5.1 cells after 72 hrs by focus formation assay
Assay type: functional, cell-based, Hepacivirus hominis
Details: Huh-7.5.1, 72 h

Compound | IC50
N#CC[C@H]1C(C(=O)c2ccccc2)=CC=CN1Cc1ccccc1 | 10.8 µM
C=CC[C@]1(C(=O)c2ccccc2)C=CCN(Cc2ccccc2)[C@H]1CC#N | 15.4 µM
